From patent publication US20220409620A1, “REDUCING IMMUNOGENICITY TO PEGLOTICASE” (Horizon Pharma Rheumatology LLC, priority 2016, published 2022)

Tested on: adult patients with uncontrolled gout
Assay: Serum uric acid (sUA) levels and sUA responder rate, open-label study of pegloticase with MTX (MIRROR OL)
Type: in vivo, human
Settings: mITT Population
Method: The primary objective is to estimate the response rate during Month 6 (Weeks 20, 22, and 24), as measured by the sustained normalization of serum uric acid (SUA) to <6 mg/dL for at least 80% of the time during Month 6 in subjects receiving KXX with MTX.
The primary efficacy outcome endpoint is the sustained normalization of SUA to <6 mg/dL for at least 80% of the time during month 6 (weeks 20, 22, and 24) in subjects receiving KXX with MTX. […] Participants who achieve this endpoint were classified as “responders.” Serum uric acid (SUA) responders may also be defined as participants achieving and maintaining SUA <6 mg/dL for at least 80% of the time during Month 6 (Weeks 20, 22, and 24).
Blood samples may be collected prior to each pegloticase infusion for measurement of SUA levels using the Beckman Coulter AU System Uric Acid procedure. Participants were declared “non-responders” if there were SUA measures >6 mg/dL at 2 consecutive study visits beginning with the week 2 visit. […] This assumption and subsequent discontinuation of pegloticase was consistent with the protocol of large phase III randomized controlled trials and the product label. A formal stopping rule was 2 occasions of SUA levels of greater than 6 mg/dL.
Clinical Chemistry—Blood samples were collected prior to each pegloticase infusion for measurement of SUA levels (primary efficacy parameter) using the Beckman Coulter AU System Uric Acid procedure. In this procedure uric acid is converted to hydrogen peroxide. Hydrogen peroxide reacts with reagent to produce a chromophore which is read bichromatically at 660/800 nm. The amount of dye formed is proportional to the uric acid concentration in the sample.
Serum samples for measurement of SUA levels were collected at the Screening Visit, the Week −4 Visit (prior to the first dose of MTX), and the Week −2 Visit during the MTX Run-in Period; within 48 hours prior to each pegloticase infusion and after the end of each pegloticase infusion prior to discharge from the site during the Pegloticase+IMM Period; at the non-infusion Week 52/End of Study/Early Termination Visits and at the Post Treatment 3 and 6 Month Follow-up Visits. Additional serum samples for SUA levels were collected at optional non-infusion (Frequent Sampling) Visits at Weeks 1 and 7. […] Subjects with SUA level >6 mg/dL at 2 consecutive visits beginning at Week 2 visit discontinued treatment, completed the End of Pegloticase Infusion Visit procedures within 2 weeks and continued the subject visits according to the protocol (without treatment).
Efficacy analyses were performed using the modified intention-to-treat (mITT) population, defined as all enrolled subjects who received ≥1 dose of pegloticase. The proportion of Month 6 responders was summarized, along with a 95% confidence interval for the proportion. The proportion of Month 3 and overall (Months 3 and 6 combined) responders was analyzed similarly.
A subject was declared a non-responder if the subject had SUA level >6 mg/dL at 2 consecutive study visits beginning with the Week 2 Visit. In addition, a subject who withdraws from study treatment for any reason after the first dose of pegloticase in the KXX+MTX Period and prior to Month 6 (for the primary endpoint) or Month 3 (for the secondary endpoint) was considered a non-responder if SUA values were not collected at the planned time points.
Patients were administered oral MTX (15 mg/week) and folate (1 mg/day) 4 weeks prior to the first pegloticase infusion (Day 1) and throughout the pegloticase treatment period. Blood was drawn prior to each infusion to measure sUA level, monitor clinical parameters, and examine for ADA development. All patients followed typical IR prophylaxis protocols (fexofenadine one day before and the morning of each infusion and acetaminophen and IV corticosteroid the morning of each infusion).

Substance: pegloticase
- Serum Uric Acid, Observed, Mean (SD) (Week 34 - Pre-Infusion): 0.82 (1.046) mg/dL
- Serum Uric Acid, Observed, Median (Week 34 - Pre-Infusion): 0.30 mg/dL
- sUA <6 mg/dL, n (%) (Week 34 - Pre-Infusion): 10 (100%)
- Serum Uric Acid, Change from Baseline, Mean (SD) (Week 36 - Post-Infusion): −9.38 (3.799) mg/dL
- Serum Uric Acid, Change from Baseline, Median (Week 36 - Post-Infusion): -9.20 mg/dL
- Serum Uric Acid, Observed, Mean (SD) (Week 36 - Post-Infusion): 0.30 (0.000) mg/dL
- Serum Uric Acid, Observed, Median (Week 36 - Post-Infusion): 0.30 mg/dL
- sUA <6 mg/dL, n (%) (Week 36 - Post-Infusion): 6 (100%)
- Serum Uric Acid, Change from Baseline, Mean (SD) (Week 36 - Pre-Infusion): −7.90 (4.094) mg/dL
- Serum Uric Acid, Change from Baseline, Median (Week 36 - Pre-Infusion): -8.60 mg/dL
- Serum Uric Acid, Observed, Mean (SD) (Week 36 - Pre-Infusion): 1.58 (2.425) mg/dL
- Serum Uric Acid, Observed, Median (Week 36 - Pre-Infusion): 0.30 mg/dL
- sUA <6 mg/dL, n (%) (Week 36 - Pre-Infusion): 8 (88.9%)
- Serum Uric Acid, Change from Baseline, Mean (SD) (Week 38 - Pre-Infusion): −8.41 (5.229) mg/dL
- Serum Uric Acid, Change from Baseline, Median (Week 38 - Pre-Infusion): -8.60 mg/dL
- Serum Uric Acid, Observed, Mean (SD) (Week 38 - Pre-Infusion): 0.93 (1.583) mg/dL
- Serum Uric Acid, Observed, Median (Week 38 - Pre-Infusion): 0.30 mg/dL
- sUA <6 mg/dL, n (%) (Week 38 - Pre-Infusion): 5 (100%)
- Serum Uric Acid, Change from Baseline, Mean (SD) (Week 40 - Pre-Infusion): −11.30 (3.686) mg/dL
- Serum Uric Acid, Change from Baseline, Median (Week 40 - Pre-Infusion): -9.80 mg/dL
- Serum Uric Acid, Observed, Mean (SD) (Week 40 - Pre-Infusion): 0.30 (0.000) mg/dL
- Serum Uric Acid, Observed, Median (Week 40 - Pre-Infusion): 0.30 mg/dL
- sUA <6 mg/dL, n (%) (Week 40 - Pre-Infusion): 3 (100%)
- Serum Uric Acid, Change from Baseline, Mean (SD) (Week 42 - Pre-Infusion): −11.30 (3.686) mg/dL
- Serum Uric Acid, Change from Baseline, Median (Week 42 - Pre-Infusion): -9.80 mg/dL
- Serum Uric Acid, Observed, Mean (SD) (Week 42 - Pre-Infusion): 0.30 (0.000) mg/dL
- Serum Uric Acid, Observed, Median (Week 42 - Pre-Infusion): 0.30 mg/dL
- sUA <6 mg/dL, n (%) (Week 42 - Pre-Infusion): 3 (100%)
- Serum Uric Acid, Change from Baseline, Mean (SD) (Week 44 - Pre-Infusion): −10.55 (4.625) mg/dL
- Serum Uric Acid, Change from Baseline, Median (Week 44 - Pre-Infusion): -9.80 mg/dL
- Serum Uric Acid, Observed, Mean (SD) (Week 44 - Pre-Infusion): 1.05 (1.305) mg/dL
- Serum Uric Acid, Observed, Median (Week 44 - Pre-Infusion): 0.30 mg/dL
- sUA <6 mg/dL, n (%) (Week 44 - Pre-Infusion): 3 (100%)
- Serum Uric Acid, Change from Baseline, Mean (SD) (Week 46 - Pre-Infusion): −12.65 (4.031) mg/dL
- Serum Uric Acid, Change from Baseline, Median (Week 46 - Pre-Infusion): -12.65 mg/dL
- Serum Uric Acid, Observed, Mean (SD) (Week 46 - Pre-Infusion): 0.30 (0.000) mg/dL
- Serum Uric Acid, Observed, Median (Week 46 - Pre-Infusion): 0.30 mg/dL
- sUA <6 mg/dL, n (%) (Week 46 - Pre-Infusion): 2 (100%)
- Serum Uric Acid, Change from Baseline, Mean (SD) (Week 48 - Post-Infusion): −10.33 (4.922) mg/dL
- Serum Uric Acid, Change from Baseline, Median (Week 48 - Post-Infusion): -9.80 mg/dL
- Serum Uric Acid, Observed, Mean (SD) (Week 48 - Post-Infusion): 1.60 (2.252) mg/dL
- Serum Uric Acid, Observed, Median (Week 48 - Post-Infusion): 0.30 mg/dL
- sUA <6 mg/dL, n (%) (Week 48 - Post-Infusion): 3 (100%)
- Serum Uric Acid, Change from Baseline, Mean (SD) (Week 48 - Pre-Infusion): −12.65 (4.031) mg/dL
- Serum Uric Acid, Change from Baseline, Median (Week 48 - Pre-Infusion): -12.65 mg/dL
- Serum Uric Acid, Observed, Mean (SD) (Week 48 - Pre-Infusion): 0.30 (0.000) mg/dL
- Serum Uric Acid, Observed, Median (Week 48 - Pre-Infusion): 0.30 mg/dL
- sUA <6 mg/dL, n (%) (Week 48 - Pre-Infusion): 2 (100%)
- Serum Uric Acid, Change from Baseline, Mean (SD) (Week 50 - Post-Infusion): −10.57 (4.598) mg/dL
- Serum Uric Acid, Change from Baseline, Median (Week 50 - Post-Infusion): -9.80 mg/dL
- Serum Uric Acid, Observed, Mean (SD) (Week 50 - Post-Infusion): 1.37 (1.848) mg/dL
- Serum Uric Acid, Observed, Median (Week 50 - Post-Infusion): 0.30 mg/dL
- sUA <6 mg/dL, n (%) (Week 50 - Post-Infusion): 3 (100%)
- Serum Uric Acid, Change from Baseline, Mean (SD) (Week 50 - Pre-Infusion): −12.65 (4.031) mg/dL
- Serum Uric Acid, Change from Baseline, Median (Week 50 - Pre-Infusion): -12.65 mg/dL
- Serum Uric Acid, Observed, Mean (SD) (Week 50 - Pre-Infusion): 0.30 (0.000) mg/dL
- Serum Uric Acid, Observed, Median (Week 50 - Pre-Infusion): 0.30 mg/dL
- sUA <6 mg/dL, n (%) (Week 50 - Pre-Infusion): 2 (100%)
- Serum Uric Acid, Change from Baseline, Mean (SD) (Week 52/ET): −12.65 (4.031) mg/dL
- Serum Uric Acid, Change from Baseline, Median (Week 52/ET): -12.65 mg/dL
- Serum Uric Acid, Observed, Mean (SD) (Week 52/ET): 0.30 (0.000) mg/dL
- Serum Uric Acid, Observed, Median (Week 52/ET): 0.30 mg/dL
- sUA <6 mg/dL, n (%) (Week 52/ET): 2 (100%)
